Patent US4045567A, “2-Alkyl-5-thiazole-carboxylic acid derivatives in hypolipemiant compositions” (Roussel Uclaf, priority 1969, dated 1977)
Read-outs that look alike come from different tables or passages of the source. Each block holds one molecule with its values, some of them ahead of it.

Tests used:
triglycerides = test: Hypolipemiant activity (serum triglycerides) in the rat, technique of Jacobs et al; type: in vivo, male rats of the Wistar strain; conditions: 4 hours after ingestion; for Percentage of Reduction by Comparison With Controls (triglycerides): oral (oesophagial probe), 20 mg/kg
Procedure: 2. Determination of hypolipemiant activity:
The hypolipemiant activity has been determined on the rat according to the technique of Jacobs et al, Proc. Soc. Exp. Biol. Med., [1965], 119 (4) pp. 1117-1120.
Male rats of the Wistar strain weighing from 160 to 180 gm are not fed for 24 hours. The products employed in a 5% suspension in gum arabic solution in water, are administered through an oesophagial probe at doses of 20, 40 and 80 mg/kg. Four hours after ingestion of the product, some blood is withdrawn on which a determination of the triglycerides is carried out.
The principle of the determination is as follows:
The serum lipids are extracted with petroleum ether in the presence of ethanol. The lipidic solution is treated several times with 87% ethanol. A solution is thus obtained, the upper part of which contains the glycerides and the lower part, the phospholipids.
The weight of the glycerides is determined by determination of glycerol by periodic acid oxidation and determination of the formaldehyde with chromotropic acid.
A. determination of hypolipemiant activity:
The hypolipemiant activity was determined on the rat using the technique of Jacobs et al (Proc. Soc. Exp. Biol. Med., [1965], 119 [4], pp. 1117-1120). Male rats of the Wistar strain weighing from 160 to 180 gm were not fed for 24 hours. The product employed in a 5% suspension in gum arabic solution in water, was administered orally through an oesophagial probe at doses of 20 and 80 mg/kg. Four hours after ingestion of the product, some blood was withdrawn and a determination of the triglycerides therein was made.
The serum lipids are extracted with petroleum ether in the presence of ethanol and the lipidic solution was treated several times with 87% ethanol to obtain a solution, the upper part of which contained the glycerides and the lower part the phospholipids. The weight of the glycerides by determination of glycerol by periodic acid oxidation and determination of the formaldehyde with chromotropic acid is estimated.

in vivo = conditions: mouse, mice, observed one week
Procedure: 1. determination of the acute toxicity:
The acute toxicity has been determined on batches of ten mice weighing from 18 to 22 gm. The products were administered in suspension in gum arabic solution in water, at increasing doses, either by oral route or by intraperitoneal route.
The animals are kept under observation for one week. The average lethal dose (LD50) is determined graphically by the method of Dragstedt and Lang.
The acute toxicity was determined on batches of ten mice weighing from 18 to 22 gm. Ethyl 2-n-propyl-thiazole-4-carboxylate was administered in suspension in gum arabic solution in water, at increasing doses by the intraperitoneal route. The animals were kept under observation for one week. The average lethal dose (LD50) was determined graphically by the method of Dragstedt and Lang.

[1] = Hypothermic activity in guinea pigs; type: in vivo; conditions: intraperitoneal, 100 mg/kg, 1, 2 and 3 hours after administration
Procedure: The hypothermic activity was determined on guinea pigs by administering the test compound, ethyl 2-n-propyl-thiazole-4-carboxylate, intraperitoneally at a dose of 100 mg/kg. The body temperature of the guinea pigs was determined 1/2 hour before the administration of the test compound and then 1, 2 and 3 hours after the said administration.

reddening of the ear = test: Peripheral vasodilatory effect (reddening of the ear) in guinea pigs; type: in vivo, guinea pigs with non-pigmented ears; design: key to Intensity (of reddening): intensity, which is recorded subjectively from 0 to +++; intensity, which is recorded subjectively from 0 to +++; intensity, which is recorded subjectively from 0 to +++; intensity, which is recorded subjectively from 0 to +++; conditions: for Duration (of reddening) / Intensity (of reddening) / Period of Induction: oral
Procedure: Peripheral vasodilatory effect: The peripheral vasodilatory effect has been investigated on the guinea pigs with non-pigmented ears by the appearance of the reddening of the ear. The animals, after being starved, are administered the products by oral route, at different dosages. The time of appearance of a reddening of the ears, the duration of this reddening and its intensity, which is recorded subjectively from 0 to +++ is determined. B. peripheral vasodilatory effect: The peripheral vasodilatory effect was investigated on guinea pigs with non-pigmented ears by the appearance of the reddening of the ear. The animals were starved and the product was administered intraperitoneally at a dose of 100 mg/kg. The time of appearance of a reddening of the ears, the duration of this reddening and its intensity being recorded subjectively from 0 to +++ is determined.

Solubility (qualitative) = type: physicochemical; conditions: for solubility in other solvents: organic solvents, sodium hydroxide
[2] = ip, intraperitoneal, read-out: average lethal dose (LD50), Intraperitoneal Route
[3] = oral, read-out: average lethal dose (LD50), Oral Route

SMILES: CCCc1nc(C(=O)OCC)cs1 [ethyl 2-n-propyl-thiazole-4-carboxylate, reference compound]
hypolipemiant activity (action on the triglycerides) (triglycerides; oral, 20 and 80 mg/kg, comparison test): no action on the triglycerides | LD50 at 168 h (in vivo; [2]): 1000 to 1500 mg/kg | hypothermic activity [1]: no hypothermic activity | peripheral vasodilatory effect (reddening of the ear; intraperitoneal, 100 mg/kg, comparison test): no vasodilatory activity

SMILES: CCCc1ncc(C(=O)O)s1 [2-propyl-5-thiazolecarboxylic acid]
Percentage of Reduction by Comparison With Controls (triglycerides) (triglycerides): > 50% | LD50 at 168 h (in vivo; [2]): 1680 mg/kg | LD50 at 168 h (in vivo; [3]): > 2000 mg/kg | solubility in other solvents (Solubility (qualitative)): soluble in sodium hydroxide and alcohol, slightly soluble in ether | solubility in water (Solubility (qualitative)): insoluble in water | Duration (of reddening) (reddening of the ear; 50 mg/kg): 30 min | Intensity (of reddening) (reddening of the ear; 50 mg/kg): + | Period of Induction (reddening of the ear; 50 mg/kg): 13 min | Duration (of reddening) (reddening of the ear; 100 mg/kg): 32 min | Intensity (of reddening) (reddening of the ear; 100 mg/kg): ++ | Period of Induction (reddening of the ear; 100 mg/kg): 10 min

SMILES: CCCc1ncc(C(=O)O)s1 [diisopropylammonium 2-propyl-5-thiazolecarboxylate]
solubility in other solvents (Solubility (qualitative)): soluble in water and in alcohol | solubility in water (Solubility (qualitative)): soluble in water

SMILES: CCCCCc1ncc(C(=O)O)s1 [2-n-pentyl-5-thiazolecarboxylic acid]
solubility in other solvents (Solubility (qualitative)): soluble in sodium hydroxide and alcohol, slightly soluble in ether | solubility in water (Solubility (qualitative)): insoluble in water

SMILES: CCCCCCCCCCCc1ncc(C(=O)O)s1 [2-n-undecyl-5-thiazolecarboxylic acid]
solubility in other solvents (Solubility (qualitative)): soluble in alcohol and acetone | solubility in water (Solubility (qualitative)): insoluble in water

SMILES: CCc1ncc(C(=O)O)s1 [2-ethyl-5-thiazolecarboxylic acid, 2-Ethyl-5-thiazolecarboxylic acid]
Percentage of Reduction by Comparison With Controls (triglycerides) (triglycerides): 50% | LD50 at 168 h (in vivo; [2]): 525 mg/kg | LD50 at 168 h (in vivo; [3]): > 2000 mg/kg | solubility in other solvents (Solubility (qualitative)): soluble in ethanol and sodium hydroxide | solubility in water (Solubility (qualitative)): insoluble in water | Duration (of reddening) (reddening of the ear; 50 mg/kg): 50 min | Intensity (of reddening) (reddening of the ear; 50 mg/kg): +++ | Period of Induction (reddening of the ear; 50 mg/kg): 6 to 8 min | Duration (of reddening) (reddening of the ear; 100 mg/kg): 60 min | Intensity (of reddening) (reddening of the ear; 100 mg/kg): +++ | Period of Induction (reddening of the ear; 100 mg/kg): 6 to 7 min

SMILES: Cc1ncc(C(=O)O)s1 [2-methyl-5-thiazolecarboxylic acid]
Percentage of Reduction by Comparison With Controls (triglycerides) (triglycerides): 40% | Duration (of reddening) (reddening of the ear; 10 mg/kg): 30 min | Intensity (of reddening) (reddening of the ear; 10 mg/kg): +++ | Period of Induction (reddening of the ear; 10 mg/kg): 5 min | Duration (of reddening) (reddening of the ear; 20 mg/kg): 32 min | Intensity (of reddening) (reddening of the ear; 20 mg/kg): +++ | Period of Induction (reddening of the ear; 20 mg/kg): 3 min | Duration (of reddening) (reddening of the ear; 50 mg/kg): 35 min | Intensity (of reddening) (reddening of the ear; 50 mg/kg): +++ | Period of Induction (reddening of the ear; 50 mg/kg): 3 min

SMILES: CCCCc1ncc(C(=O)O)s1 [2-n-butyl-5-thiazolecarboxylic acid]
solubility in other solvents (Solubility (qualitative)): soluble in alcohol, chloroform and benzene | solubility in water (Solubility (qualitative)): insoluble in water

More lines, main results first:

solubility in other solvents (Solubility (qualitative)): soluble in ether and acetone | solubility in water (Solubility (qualitative)): insoluble in water
SMILES: CCCc1ncc(C(=O)OCCc2ccccc2)s1 [Phenylethyl 2-propyl-5-thiazolecarboxylate]

solubility in water (Solubility (qualitative)): soluble in water
SMILES: CCCc1ncc(C(=O)OCCN(CC)CC)s1 [chlorohydrate of N,N-diethylaminoethyl 2-propyl-5-thiazolecarboxylate]
solubility in other solvents (Solubility (qualitative)): soluble in water, ethanol, propylene glycol, acetone, and chloroform, slightly soluble in ethyl acetate and benzene, and insoluble in ether

solubility in other solvents (Solubility (qualitative)): soluble in ether and ethanol | solubility in water (Solubility (qualitative)): insoluble in water
SMILES: CCCc1ncc(C(=O)OCc2ccccc2)s1 [benzyl 2-propyl-5-thiazolecarboxylate, Benzyl 2-propyl-5-thiazolecarboxylate]

solubility in other solvents (Solubility (qualitative)): soluble in sodium hydroxide and alcohol | solubility in water (Solubility (qualitative)): insoluble in water
SMILES: CCCCCCc1ncc(C(=O)O)s1 [2-n-hexyl-5-thiazolecarboxylic acid]

solubility in other solvents (Solubility (qualitative)): soluble in ether, benzene and ethanol | solubility in water (Solubility (qualitative)): insoluble in water
SMILES: CCCc1ncc(C(=O)OCC2COC(C)(C)O2)s1 (stereo not drawn) [2,3-Isopropylidenedioxy-propyl 2-propyl-5-thiazolecarboxylate]
